# Assay results published in patent publication US11560420B2, “Method for producing antibodies using ovine B-cells and uses thereof” (Roche Diagnostics Operations, Inc., priority 2013, dated 2023).
# B1: IL-4: human IL-4 (Peprotech), 10 ng/ml added to the basal medium (protein, UniProt P05112 25-153, looked up)
# Interleukin-4: HKCDITLQEIIKTLNSLTEQKTLCTELTVTDIFAASKNTTEKETFCRAATVLRQFYSHHEKDTRCLGATAQQFHRHKQLIRFLKRLDRNLWGLAGLNSCPVKEANQSTLENFLERLKTIMREKYSKCSS
# Legend:
# [1] = system: single sIgG+CD21+ B-cells; test: Antigen-specificity of IgG secreted by single-cell B-cell clones (antigen-specific ELISA); format: cell-based, sheep; settings: for % wells with antigen-specific IgG: % of IgG-secreting clones
# Protocol: The specificity of the secreted antibodies was analyzed using an antigen-specific ELISA (data not shown).
# Additionally, the specificity of the secreted antibodies was analyzed using an antigen-specific ELISA (data not shown).
# Biotin-conjugated antigens were immobilized on a streptavidin coated 96-well plate (MicroCoat, Bernried, Germany). The biotinylated antigens (100 μl/well) were used at a concentration of 100-300 ng/ml in PBS/1% RPLA4 (bovine plasma albumin) (Roche Diagnostics GmbH, Mannheim, Germany) and wells were incubated with the diluted antigens for 1 hour at room temperature (RT). After washing with Wash Buffer (0.9% NaCl/0.05% Tween) the supernatants of the in vitro cultivated B-cells or serial dilutions of purified polyclonal sheep IgG (Roche) were added to the plates and incubated for 1 hour at RT. After washing with Wash Buffer wells were incubated with a donkey anti-sheep IgG (H+L) antibody (1:15,000 dilution in PBS/1% RPLA4) labeled with horseradish peroxidase (Dianova, cat. #713-035-147). After incubation for 1 hour at RT the plates were washed with Wash Buffer and signals were detected using ABTS solution (Roche Diagnostics GmbH, Mannheim, Germany) as substrate.
# [2] = system: single sIgG+CD21+ B-cells; test: Sorting and cultivation of single sIgG+CD21+ B-cells, IgG concentration of supernatant by ELISA; format: cell-based, sheep; settings: for % IgG positive wells: % of total wells
# Excerpt: PBMCs were isolated from sheep immunized with a KLH-conjugated hapten, underwent positive panning for enrichment of antigen-specific B-cells and were stained for both sheep sIgG and CD21. Single cells were sorted in 96-well plates using a BD FACS Aria cell sorter. Cells were cultivated in IMDM supplemented with 10% FCS, SAC, sheep TSN and PMA. Cells were cultivated in the presence of EL4B5 feeder cells. After one week of cultivation, the IgG concentration of the supernatant of the cells was analyzed by ELISA.
# This experiment was performed again. PBMCs were isolated from sheep immunized with another KLH-conjugated hapten, underwent positive panning for enrichment of antigen-specific B-cells and were stained for both sheep sIgG and CD21. Double-positive single cells were sorted in 96-well plates using a BD FACS Aria cell sorter. Cells were cultivated in IMDM supplemented with 10% FCS, SAC, sheep TSN and PMA in the presence of EL4B5 feeder cells.
# In control experiments single cells were cultivated using the same cultivation conditions in the absence of PMA. After one week of cultivation, the IgG concentration of the cell supernatants was analyzed by ELISA. After one week of cultivation in the presence of PMA a total of approx. 16% of total wells contained IgG-secreting B-cell clones. In turn, 35% of the wells with IgG-secreting clones contained a low IgG concentration, 35% contained an average IgG concentration and 30% contained a high IgG concentration. In the absence of PMA none of the wells contained IgG-secreting B-cell clones.
# Sheep PBMCs from immunized animals were isolated as described above. Antigen-specific B-cells were enriched by positive panning using the biotinylated antigen and magnetic streptavidin microbeads (Miltenyi Biotec) as described above. Cells were stained using a 1:50 diluted FITC-labeled anti-sheep IgG monoclonal antibody (Clone GT-34) (Sigma-Aldrich) in combination with a 1:10 diluted RPE-labeled anti-sheep CD21 mAb (AbD Serotec). Cells were incubated with the mAbs for 45 min. at 4° C. under gentle rotation. In control experiments aliquots of the cells were stained with the individual mAbs alone (single staining). Unstained cells served as negative control.
# After washing with PBS cells were resuspended in FACS buffer and subjected to cell sorting using a FACS Aria I cell sorter (BD Biosciences). Single sIgG^+CD21^+ double positive B-cells were identified and sorted into a 96-well plate (one cell/well) containing 280 μl medium and γ-irradiated murine EL4B5 feeder cells (approx. 5×10^4 feeder cells/well seeded 24 hours before cell sorting into the plates).
# The medium for cultivation of single ovine B-cells was IMDM (Gibco) was supplemented with 10% FCS (Hyclone), L-Penicillin-Streptomycin-Glutamine (1×) (Gibco), 55 μM 2-Mercaptoethanol (Gibco), 0.025% Pluronic F-68 (Gibco), sheep TSN (1:20 dilution), SAC (1:10,000 dilution) (Calbiochem) and 1 μg/ml PMA (Sigma-Aldrich).
# B-cells were incubated for 7 to 10 days in the medium at 37° C./5% CO2 in a humidified atmosphere. Subsequently the supernatant of the cells was harvested and the IgG concentration was determined by ELISA as described below
# A biotin-conjugated monoclonal anti-sheep IgG antibody (cat. #213-062-177, Dianova, Hamburg, Germany) was immobilized on a streptavidin coated 96-well plate (MicroCoat, Bernried, Germany). The mAb (100 μl/well) was used at a concentration of 300 ng/ml in PBS/1% RPLA4 (bovine plasma albumin) (Roche Diagnostics GmbH, Mannheim, Germany) and wells were incubated for 1 hour at room temperature (RT) with the diluted mAb. After washing with Wash Buffer (0.9% NaCl/0.05% Tween) the supernatants of the in vitro cultivated B-cells or serial dilutions of purified polyclonal sheep IgG (Roche) were added to the plates and incubated for 1 h at RT. After washing with Wash Buffer wells were incubated with a donkey anti-sheep IgG (H+L) antibody (1:15,000 dilution in PBS/1% RPLA4) labeled with horseradish peroxidase (Dianova, cat. #713-035-147). […]
# sIgG+CD21+ B-cells = test: IgG secretion by in vitro cultivated pools of sIgG+CD21+ B-cells (sheep IgG ELISA of supernatants); format: cell-based
# Excerpt: (§1) To exemplify the current invention PBMCs were isolated from sheep immunized with a KLH-conjugated hapten and underwent positive panning using the biotinylated hapten and magnetic streptavidin beads to enrich antigen-specific B-cells. Subsequently, B-cells were stained for both surface IgG (sIgG) and the B-cell marker CD45R or CD21. Pools of 50 cells (sIgG^+CD45R^+ or sIgG^+CD21^+) were sorted into 96-well plates using a BD FACS Aria cell sorter. Cells were cultivated in medium supplemented with different factors in order to identify a medium composition that promotes the proliferation of the B-cells as well as the differentiation to IgG secreting cells (i.e. plasma cells)
# (§2) In all experiment the basal medium was supplemented with 10% FCS, SAC and sheep TSN. Cells were cultivated in the presence of EL4B5 feeder cells.
# (§3) Pools of 50 cells/well of antigen-enriched sIgG^+CD21^+ B-cells were cultivated in the indicated medium in a 96-well plate in the presence of EL4B5 feeder cells. After one week of cultivation the sheep IgG concentration of the supernatants was analyzed using a sheep IgG ELISA. The results for IMDM as basal medium are presented in FIG. 2 and for DMEM and IMDM as basal medium in the following Table.
# (§4) For a more detailed analysis 4 categories of wells were defined: Wells with no IgG producing cells (IgG concentration below limit of detection, i.e. <10 ng/ml), wells with low IgG concentrations (10-50 ng/ml), wells with an average IgG concentration (50-200 ng/ml) and wells with a high IgG concentration (200-400 ng/ml).
# (§5) Suffolk-Merino sheep were immunized several times using a KLH-coupled hapten as immunogen (500 μg dose formulated in an adjuvant). Five days before isolation of B-cells sheep were boosted by a subcutaneous application of the immunogen (500 μg dose per animal formulated in an adjuvant). For isolation of B-cells approx. 150 ml EDTA-blood was taken from the animals and mixed with an equal volume of PBS. The diluted blood was loaded on Leucosep™ tubes (Greiner Bio-One, Frickenhausen, Germany) (20 ml per tube) and centrifuged for 15 min. at 800×g at room temperature. After centrifugation the PBMCs (peripheral blood mononuclear cells) were collected, washed with PBS and counted using a counting chamber.
# Following washing with PBS the PBMCs were resuspended in FACS Buffer (PBS/1% BSA) at 5×10^7 cells/ml. For positive panning of antigen-specific B-cells, the cells were labeled by incubation with the biotinylated hapten (500 ng/ml) for 30 min. at 4° C. under gentle rotation. Subsequently cells were washed with PBS and resuspended in Labeling Buffer (PBS/2 mM EDTA) at 1×10^7 cells per 90 μl. […]
# sIgG+CD45R+ B-cells = test: IgG secretion by in vitro cultivated pools of sIgG+CD45R+ B-cells (sheep IgG ELISA of supernatants); format: cell-based; settings: for number of IgG-containing wells compared with basal medium: basal medium supplemented with the factor
# Excerpt: as §1, §2
# as §3, with “sIgG^+CD45R^+” for “sIgG^+CD21^+”, “different media” for “indicated medium”, “1” for “2”
# as §4, §5
# Following washing with PBS the PBMCs were resuspended in FACS Buffer (PBS/1% BSA) at 5×10^7 cells/ml. For positive panning of antigen-specific B-cells, the cells were labeled by incubation with the biotinylated hapten (500 ng/ml) for 30 min. at 4° C. under gentle rotation. Subsequently cells were washed with PBS and resuspended in Labeling Buffer (PBS/2 mM EDTA) at 1×10^7 cells per 90 μl. Cells were incubated with magnetic streptavidin microbeads (Miltenyi Biotec, Bergisch-Gladbach, Germany) for 30 min. at 4° C. under gentle rotation (using 10 μl of the beads per 90 μl of cell suspension). After washing with PBS cells were resuspended in MACS Buffer (PBS/1% BSA/2 mM EDTA) at 2×10^8 cells/ml and loaded on MACS column (Miltenyi Biotec) equilibrated with MACS buffer. Following washing with MACS buffer the magnet was removed from the column and labeled, antigen-specific cells were eluted in MACS buffer.
# For staining of B-cells the eluted cell fraction was washed with PBS and resuspended in FACS Buffer at 2×10^7 cells/ml. […]
# [3] = second experiment, listed as with PMA
# [4] = first experiment, % of wells with IgG-secreting clones
# [5] = second experiment, % of wells with IgG-secreting clones
# [6] = second experiment, % of wells with IgG-secreting clones, listed as with PMA
molecule,measurement,setting,value
"CCCCCCCCCCCCCC(=O)O[C@@H]1[C@@H](C)[C@@]2(O)[C@@H](C=C(CO)C[C@]3(O)C(=O)C(C)=C[C@@H]23)[C@@H]2C(C)(C)[C@]12OC(C)=O [PMA, Phorbol 12-Myristate-13-Acetate]",IgG-secreting clones producing antigen-specific antibodies,"[1]; first experiment, % of total IgG-secreting clones",38%
same,No. wells with antigen-specific IgG,[1]; second experiment,19
same,% wells with antigen-specific IgG,[1]; second experiment,29%
same,% wells with antigen-specific IgG,[1]; [3],28.8%
same,wells with IgG-secreting clones containing a high IgG concentration (200-400 ng/ml),[2]; [4],14%
same,wells with IgG-secreting clones containing a low IgG concentration (10-50 ng/ml),[2]; [4],62%
same,wells with IgG-secreting clones containing an average IgG concentration (50-200 ng/ml),[2]; [4],24%
same,total wells containing IgG-secreting B-cell clones,"[2]; first experiment, single cells, IMDM with 10% FCS, SAC, sheep TSN and PMA, EL4B5 feeder cells, one week",33%
same,wells with high IgG conc. (number),[2]; second experiment,20
same,wells with low IgG conc. (number),[2]; second experiment,23
same,wells with medium IgG conc. (number),[2]; second experiment,23
same,No. IgG positive wells,"[2]; second experiment (another KLH-conjugated hapten), single cells, one week",66
same,% IgG positive wells,[2]; second experiment,approx. 16%
same,% IgG positive wells,[2]; [3],15.7%
same,wells with high IgG conc. (%),[2]; [5],30%
same,wells with low IgG conc. (%),[2]; [5],35%
same,wells with medium IgG conc. (%),[2]; [5],35%
same,wells with high IgG conc. (%),[2]; [6],30.3%
same,wells with low IgG conc. (%),[2]; [6],34.8%
same,wells with medium IgG conc. (%),[2]; [6],34.8%
same,wells with a high IgG concentration (200-400 ng/ml),sIgG+CD21+ B-cells; IMDM as basal medium,approx. 50%
same,wells with an average IgG concentration (50-200 ng/ml),sIgG+CD21+ B-cells; IMDM as basal medium,approx. 40%
same,wells containing significant levels of IgG (>50 ng/ml),sIgG+CD21+ B-cells; addition to the basal medium,approx. 90%
same,wells containing significant concentrations of IgG (>50 ng/ml),"sIgG+CD45R+ B-cells; DMEM basal medium (10% FCS, SAC, sheep TSN)",64%
same,wells with an average IgG concentration (50-200 ng/ml),sIgG+CD45R+ B-cells; IMDM as basal medium,100%
same,wells containing significant concentrations of IgG (>50 ng/ml),"sIgG+CD45R+ B-cells; IMDM basal medium (10% FCS, SAC, sheep TSN)",100%
"IL-6: human IL-6 (Roche Diagnostics GmbH), 50 ng/ml added to the basal medium",number of IgG-containing wells compared with basal medium,sIgG+CD45R+ B-cells,increase
B1,number of IgG-containing wells compared with basal medium,sIgG+CD21+ B-cells; basal medium supplemented with the factor,increase
same,number of IgG-containing wells compared with basal medium,sIgG+CD45R+ B-cells,increase
